Source: patent US9284576B2, “In vitro hepatic differentiation” (Cambride Enterprise Limited, priority 2010, dated 2016)
Peptide text beside a SMILES is read from it. * marks the point of attachment. Cbz = O=C(OCc1ccccc1)*

Legend:
[1] = system: α1-antitrypsin deficient dhIPSC derived hepatocytes; assay: proteosome blocking assay with ELISA for α1-antitrypsin; assay type: cell-based, human; details: MG132 added to medium overnight (16 hours), A1ATD vs control hIPSC derived hepatocytes, FIG. 10
Experimental: High binding surface COSTAR 96-well plates (Corning, N.Y., USA) were coated overnight with affinity-purified rabbit polyclonal antibodies against α1-antitrypsin (Abcam 31657, Cambridge, UK) at 2 μg/ml in carbonate/bicarbonate buffer (Na2CO3/NAHCO3, pH 9.5). After washing (0.9% w/v NaCl, 0.05% v/v Tween 20), the plates were blocked for two hours in blocking buffer (PBS, 0.25% w/v BSA, 0.05% v/v Tween 20). Samples (culture medium or cells lysed in 50 μl of Nonidet lysis buffer (150 mM NaCl, 50 mM Tris-Cl, pH 7.5, 1% (v/v) Nonidet P-40), and standards (plasma purified M or Z α1-antitrypsin) were diluted in blocking buffer and 50 μl added to each well then incubated for two hours. After washing, the wells were incubated with either 9C5 or 2C1 monoclonal antibodies (1 μg/ml diluted in blocking buffer), and incubated for two hours. Bound monoclonal antibodies were detected with rabbit anti-mouse IgG HRP-labelled antibody (Sigma Aldrich, Haverhill, UK, 1:20,000) for one hour. The reaction was developed with TMB liquid substrate (Sigma Aldrich, Haverhill, UK) for 10 minutes in the dark and the reaction was stopped with 1 M H2SO4. Absorbance was read at 450 nm on a Thermo-max microplate reader (Molecular Devices, Sunnyvale, Calif., U.S.A.). […]

[2] = system: dhIPSC derived hepatocytes; assay: Metabolic enzyme response to glucagon stimulation (qRT-PCR of PEPCK, G6P, IGFBP1); assay type: cell-based, human; details: 100 nM glucagon hydrochloride; 0, 1, 2 and 3 hours after stimulation; FIG. 16
Experimental: dhIPSC derived hepatocytes were incubated for six hours in serum-free, high-glucose DMEM supplemented with 2 mM L-glutamine, […] penicillin, 100 ug/ml streptomycin, and 0.5% Bovine Serum Albumin (all from Sigma-Aldrich). Cells were stimulated with 100 nM glucagon […] hydrochloride (Novo Nordisk, Bagsvard, Denmark) or PBS (Sigma-Aldrich) as a negative control. Total RNA was harvested using the RNeasy Kit (Qiagen, Hilden, Germany) at 0, 1, 2 or 3 hours after stimulation and purified as per manufacturer's guidelines. Reverse transcription was performed on 1 ug RNA in a 25 μl reaction mixture containing 2000 Moloney Murine Leukemia Virus Reverse Transcriptase, 500 ng random primers and 0.5 mM deoxynucleotide triphosphates (all from Promega, Wis., Ma) as per manufacturer's guidelines. cDNA was subjected to real-time quantitative PCR on an ABI7900 detection system (Applied Biosystems, Foster City, Calif.) using Tagman PCR Mastermix (Applied Biosystems) and gene-specific forward and reverse primers and fluorogenic probes. All results were normalised to human 36B4 as a reference gene. Primers and probes for PEPCK (Hs00159918—1), G6P (Hs00609178—1) and IGFBP1 (Hs00426285 ml) were purchased as premade stocks from Applied Biosystems. Oligonucleotides for 36B4 were designed in-house and synthesised by Sigma-Aldrich (Forward, 5′-[…]-3′; Reverse, 5′-[…]-3′; Probe, 5′-[JOEE][…][TAMRA]-3′).

| Molecule | intracellular α1-antitrypsin polymers after proteasome inhibition [1] | expression of glucagon-responsive genes PEPCK, G6P and IGFBP1 [2] |
| --- | --- | --- |
| CC(C)C[C@@H](C=O)NC(=O)[C@H](CC(C)C)NC(=O)[C@H](CC(C)C)NC(=O)OCc1ccccc1 [MG132] (Cbz-Leu-Leu-Leu-aldehyde) | disease specific intracellular increase in α1-antitrypsin polymers |  |
| glucagon hydrochloride |  | induction of expression of three canonical glucagon-responsive genes |
